Laboratory results from PMC2880636 (Journal of medicinal chemistry, 2009).

Columns and labels:
morphine antinociception = experiment: warm-water tail immersion test, blockade of morphine antinociception; details: sc, 5 min before morphine 10 mg/kg sc; 56 °C; tested 20 min later
μ opioid receptor (MOR) = μ opioid receptor (MOR) (Mus musculus, UniProt P42866); experiment: competitive radioligand binding, [3H]naloxone, monocloned receptor in CHO cells
MOR = MOR (Mus musculus, UniProt P42866); experiment: 35S-GTP[γS]-binding functional assay in MOR expressing CHO cells; type: biochemical; details: Emax relative to full agonist DAMGO (3 μM)
W318A mutant MOR = W318A mutant MOR (Mus musculus, UniProt P42866, W318A); type: binding
antinociception = experiment: warm-water tail immersion test, agonist; details: doses up to 100 mg/kg

μ opioid receptor (MOR), sequence (P42866 whole entry): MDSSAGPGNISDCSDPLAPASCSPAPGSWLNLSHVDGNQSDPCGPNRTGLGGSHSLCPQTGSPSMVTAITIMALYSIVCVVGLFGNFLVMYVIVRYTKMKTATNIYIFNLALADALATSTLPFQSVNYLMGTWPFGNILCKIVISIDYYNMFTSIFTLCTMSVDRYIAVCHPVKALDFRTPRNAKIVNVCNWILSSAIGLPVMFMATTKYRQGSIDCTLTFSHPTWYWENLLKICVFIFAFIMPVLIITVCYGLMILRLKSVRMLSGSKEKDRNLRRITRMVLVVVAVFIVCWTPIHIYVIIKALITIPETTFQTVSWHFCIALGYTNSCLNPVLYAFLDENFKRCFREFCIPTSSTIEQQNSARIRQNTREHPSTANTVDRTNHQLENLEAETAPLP
W318A mutant MOR, sequence (P42866 whole entry W318A): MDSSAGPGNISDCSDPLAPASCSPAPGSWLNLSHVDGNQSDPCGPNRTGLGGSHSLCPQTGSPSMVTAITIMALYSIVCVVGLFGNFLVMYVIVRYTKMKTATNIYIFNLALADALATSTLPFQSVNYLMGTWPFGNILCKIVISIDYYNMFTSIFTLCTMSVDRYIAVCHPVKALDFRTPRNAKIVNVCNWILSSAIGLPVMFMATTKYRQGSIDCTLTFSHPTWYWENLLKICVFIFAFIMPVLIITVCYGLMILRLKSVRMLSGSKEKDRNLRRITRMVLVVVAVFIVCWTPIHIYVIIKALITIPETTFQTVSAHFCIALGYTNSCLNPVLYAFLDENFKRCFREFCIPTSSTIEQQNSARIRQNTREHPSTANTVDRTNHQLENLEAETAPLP
MOR, sequence (P42866 whole entry): as the sequence (P42866 whole entry) above

O=C(N[C@@H]1CC[C@@]2(O)[C@H]3Cc4ccc(O)c5c4[C@@]2(CCN3CC2CC2)[C@H]1O5)c1cc2ccccc2cn1 [Compound 10]
AD50 value (mg/kg (95% CL)) for blockade of morphine antinociception (morphine antinociception): inactive

O=C(N[C@@H]1CC[C@@]2(O)[C@H]3Cc4ccc(O)c5c4[C@@]2(CCN3CC2CC2)[C@H]1O5)c1cnc2ccccc2c1 [Compound 14, 17-Cyclopropylmethyl-3,14β-dihydroxy-4,5α-epoxy-6β-[(3′-quinolyl)acetamido]morphinan]
AD50 value (mg/kg (95% CL)) for blockade of morphine antinociception (morphine antinociception): 42.55 (23.67–76.51) mg/kg

C=CCN1CC[C@]23c4c5ccc(O)c4O[C@H]2C(=O)CC[C@@]3(O)[C@H]1C5 [naloxone, reference compound]
AD50 value (mg/kg (95% CL)) for blockade of morphine antinociception (morphine antinociception): 0.05 (0.03–0.09) mg/kg

O=C(N[C@H]1CC[C@@]2(O)[C@H]3Cc4ccc(O)c5c4[C@@]2(CCN3CC2CC2)[C@H]1O5)c1cnc2ccccc2c1 [Compound 13, 17-Cyclopropylmethyl-3,14β-dihydroxy-4,5α-epoxy-6α-[(3′-quinolyl)acetamido]morphinan]
AD50 value (mg/kg (95% CL)) for blockade of morphine antinociception (morphine antinociception): 4.45 (2.41–8.15) mg/kg

O=C(N[C@H]1CC[C@@]2(O)[C@H]3Cc4ccc(O)c5c4[C@@]2(CCN3CC2CC2)[C@H]1O5)c1cc2ccccc2cn1 [Compound 9, 17-Cyclopropylmethyl-3,14β-dihydroxy-4,5α-epoxy-6α-[(3′-isoquinolyl)acetamido]morphinan]
selectivity for the MOR over the DOR (μ opioid receptor (MOR)): over 200 fold
selectivity for the MOR over the KOR (μ opioid receptor (MOR)): approximately 50 fold
% max of DAMGO (MOR): approximately 20%
IC50 (W318A mutant MOR): > 1 µM
AD50 value (mg/kg (95% CL)) for blockade of morphine antinociception (morphine antinociception): 0.45 (0.27–0.78) mg/kg
agonist effect in tail immersion test (antinociception): neither of these ligands produced any agonist effect
